# Measured values published in article PMC8341910, “Structural and biophysical insights into the mode of covalent binding of rationally designed potent BMX inhibitors” (RSC Chemical Biology, 2020).
# “And” between values parts separate entries of the source, which are not always exact repeats. Equal entries are not always repeated. Where two headings read alike, the source gives them in different places.
# Legend:
# LNCaP cells = assay: LNCaP cell growth assay (CellTiter-Glo, 96 h); format: cell-based; settings: Homo sapiens, read-out: GI50 LNCaP
# Experimental: (§1) GI50 values are reported in μM and are the mean of three individual experiments performed in triplicate. N.d., non-determined, no growth inhibition observed within the concentrations tested.
# (§2) Cellular activity Assay: LNCaP and PC-3 Cell Growth Assay
# (§3) Cells were seeded in white, opaque-bottom 96-well plates at 5000 cells/well (LNCaP) or 2000 cells/well (PC-3) in a total volume of 100 µL of culture media.
# (§4) fold) in 100 µL media were added to the cells 24 hours later. After 96 hours incubation cellular viability was assessed by CellTiter-Glo® (Promega) according to the manufacturer’s instructions. The values were normalized to vehicle and IC50 was calculated using GraphPad
# PC3 = assay: Multi cell line growth assay (CellTiter-Glo, 72 h); format: cell-based, human; settings: Homo sapiens, PC-3, Prostate, ND = no growth inhibition observed
# Jurkat = assay: Multi cell line growth assay (CellTiter-Glo, 72 h); format: cell-based, human; settings: Homo sapiens, Jurkat, Blood, ND = no growth inhibition observed
# [1] = target: T1, recombinant human BMX protein (hBMX) (Homo sapiens, UniProt P51813); assay: Differential scanning fluorimetry (DSF); format: binding; settings: 100 μM compound
# T1 construct: Crystallization, data collection, and structure determination of BMX catalytic domain in; made in house; host or cells: Sf-9 insect cells
# [2] = pH 6.8
# U-87MG = assay: Multi cell line growth assay (CellTiter-Glo, 72 h); format: cell-based; settings: Homo sapiens, Brain, ND = no growth inhibition observed
# 22 RV1 = assay: Multi cell line growth assay (CellTiter-Glo, 72 h); format: cell-based, human; settings: Homo sapiens, 22Rv1, Prostate, ND = no growth inhibition observed
# in vitro = settings: PAMPA
# CAOV3 = assay: Multi cell line growth assay (CellTiter-Glo, 72 h); format: cell-based, human; settings: Homo sapiens, Caov-3, Ovary, ND = no growth inhibition observed
# DU145 = assay: Multi cell line growth assay (CellTiter-Glo, 72 h); format: cell-based; settings: Homo sapiens, DU-145, Prostate, ND = no growth inhibition observed
# His6-hsBMX = target: T2, His6-hsBMX (Homo sapiens, UniProt P51813); assay: Surface plasmon resonance (SPR); format: binding; settings: from kinetic constants
# T2 construct: Crystallization, data collection, and structure determination of BMX catalytic domain in; made in house; host or cells: Sf-9 insect cells
# Excerpt: response upon compound injection (t=0s), or upon washing (t=220s), on immobilized His6-
# hsBMX surfaces. Compound concentrations injected on already saturated surfaces were not
# included in the 1:1 Langmuir fitting model. X-axis: time (s); y-axis: response (arbitrary units).
# Inset plots [x-axis: compound concentration (M); y-axis: response (arbitrary units)] show the
# steady-state affinity (KDss) fit for the interactions wherein equilibrium was reached.
# Surface Plasmon Resonance:
# The kinetic and affinity parameters of protein-compound interaction were evaluated by SPR.
# Experiments were carried out in a Biacore 4000 instrument (Biacore AB, GE Healthcare Life
# Sciences, Uppsala, Sweden) at 25 °C. His6-BMX protein was diluted to 10 µg/mL in sodium
# acetate pH 5.5, in the presence of 5 µM staurosporine and immobilized onto CM5 (Series S)
# sensor chips, using the standard amine coupling procedure. Prior to immobilization, the
# carboxymethylated surface of the chip was activated with 400 mM 1-ethyl-3-(3-
# dimethylaminopropyl)-carbodiimide and 100 mM N-hydroxysuccinimide for 10 min. HBS-N
# (10 mM HEPES pH7.4, 150mM NaCl) was used as the background buffer. Protein was coupled
# to the surface after 2 to 10 min injection times, at a flow rate of 10 µL/min, in order to reach
# 1500 to 3500 response units (RU). The remaining activated carboxymethylated groups were
# blocked with a 7 min injection of 1 M ethanolamine pH 8.5. Compounds were pre-diluted in
# DMSO to 50x the desired highest tested concentration and diluted afterwards in running buffer
# (20 mM HEPES pH 7.4, 150 mM NaCl, 1 mM DTT, 0.1 mM EGTA, 0.05 % (v/v) TWEEN-
# 20, 5 mM MgCl2) in order to reach 2% of DMSO concentration. A DMSO solvent correction
# (1% - 3%) was performed to account for variations in bulk signal and to achieve high-quality
# data. Each compound was injected over immobilized His6-BMX for 220 s (30 µL min-1;
# association phase) followed by 600 to 2000 s of buffer flow (dissociation phase) at a maximum
# five times in 2-fold dilution series. All sensorgrams were processed by first subtracting the
# binding response recorded from the control surface (reference spot), followed by subtracting
# the buffer blank injection from the reaction spot. All datasets were fit to a simple 1:1 Langmuir
# interaction model with the provided Biacore 4000 Evaluation software, to determine kinetic rate constants (kon, koff) or steady-state affinity (KDss).
# LNCaP = assay: Multi cell line growth assay (CellTiter-Glo, 72 h); format: cell-based, human; settings: Homo sapiens, LNCaP, Prostate, ND = no growth inhibition observed within the concentrations tested
# SK-N-MC = assay: Multi cell line growth assay (CellTiter-Glo, 72 h); format: cell-based, human; settings: Homo sapiens, SK-N-MC, Brain, ND = no growth inhibition observed
# [3] = target: NanoLuc®-BMX fusion vector in HEK293 cells (Homo sapiens, UniProt P51813); assay: NanoBRET TE intracellular kinase assay; format: cell-based; settings: HEK293 transiently transfected with BMX; 1 h; duplicate, mean ± S.D.; read-out: intracellular target engagement IC50
# Experimental: Target Engagement Intracellular Kinase Assay:
# In-cell target engagement was performed at the Reaction Biology Corporation (USA) using the NanoBRETTM technology. Very briefly, HEK296 cells, purchased from ATCC, were
# with the reference compound Dasatinib, for 1 hour of incubation. Compounds were diluted 10 times with 3-fold dilution, starting at 1 µM. Curve fits were performed only when % NanoBret
# determined using the GraphPad Prism 8 (USA).
# RS4(11) = assay: Multi cell line growth assay (CellTiter-Glo, 72 h); format: cell-based, human; settings: Homo sapiens, RS4-11, Lung (so in the source), ND = no growth inhibition observed
# [4] = target: T3, wild-type BMX in PC3 cells (Homo sapiens, UniProt P51813); assay: BMX degradation assay in PC3 cells (Western blot); format: cell-based; settings: 10 μM; 24 h and 72 h; band intensity normalized to α-Tubulin
# T3 construct: endogenous in cells; host or cells: PC3 prostate cancer cells (wild-type, untransfected)
# Experimental: The cell proliferation depends on BMX kinase activity that was used to monitor the cellular activity of the compounds (IC50). […].  Fig. 5 (a) Intracellular target engagement in HEK293 cells transiently transfected with BMX expressing NanoLuc®-BMX fusion vector with Promega's NanoBRET™ TE Intracellular Kinase Assay. […] Band intensity was measured using ImageJ and normalized with α-Tubulin band intensity. […] Data are mean ± standard deviation obtained from at least three independent measurements (n = 3). See ESI ^† for additional data and analysis. […] | page 12: […]
# degradation assay. Protein band intensity normalized with α-Tubulin band intensity and quantified using ImageJ. Data was obtained from at least three independent measurements […]
# concentration against PC3 cells, plated on 6-well plates, a day after attachment. DMSO was used as a control vehicle. At 24 h and 72 h of incubation, cells were washed in 1X PBS and lysed in 100 µL RIPA Buffer (in house) supplemented with EDTA-free Protease Inhibitor Cocktail (Merk) and DNase I (Merk). The lysis procedure was performed by re-suspending cells continuously, followed by a incubation of 30 min on ice. BMX antibody (Abcam) and tubulin antibody (Cell signaling Technology) were used in the Western blot. Band intensity […]
# Kasumi = assay: Multi cell line growth assay (CellTiter-Glo, 72 h); format: cell-based, human; settings: Homo sapiens, Blood, ND = no growth inhibition observed
# [5] = Dynamic light scattering, colloidal aggregation; format: physicochemical; settings: deionized and filtered water (0.1% DMSO), kinetic from dmso stock, measured at 10 µM, 1 µM and 100 nM, 25 °C, read-out: DLS maximum soluble concentration at which no aggregates are observed
# Experimental: In addition, we measured particle sizes by using dynamic light scattering (DLS).
# DLS is measured at 10 µM, 1µM and 100 nM. The maximum soluble
# concentration – at which no aggregates are observed - is indicated and the colour code indicates
# Dynamic Light Scattering:
# Dynamic light scattering (Zetasizer Nano S, Malvern, UK) was used to determine compound colloidal aggregation. […] A 10 mM stock solution of
# test compounds was prepared in DMSO, following dilution to deionized and filtered water to
# obtain an analyte solution of 10 μM (0.1% DMSO). Colloidal aggregation was measured
# through sequential dilutions at 10 μM, 1 μM and 0.1 μM.
# BMX = target: T4, BMX (Homo sapiens, UniProt P51813); assay: BMX biochemical activity assay (HTRF, phosphorylation of a biotinylated peptide)
# T4 sequence (P51813 1-675): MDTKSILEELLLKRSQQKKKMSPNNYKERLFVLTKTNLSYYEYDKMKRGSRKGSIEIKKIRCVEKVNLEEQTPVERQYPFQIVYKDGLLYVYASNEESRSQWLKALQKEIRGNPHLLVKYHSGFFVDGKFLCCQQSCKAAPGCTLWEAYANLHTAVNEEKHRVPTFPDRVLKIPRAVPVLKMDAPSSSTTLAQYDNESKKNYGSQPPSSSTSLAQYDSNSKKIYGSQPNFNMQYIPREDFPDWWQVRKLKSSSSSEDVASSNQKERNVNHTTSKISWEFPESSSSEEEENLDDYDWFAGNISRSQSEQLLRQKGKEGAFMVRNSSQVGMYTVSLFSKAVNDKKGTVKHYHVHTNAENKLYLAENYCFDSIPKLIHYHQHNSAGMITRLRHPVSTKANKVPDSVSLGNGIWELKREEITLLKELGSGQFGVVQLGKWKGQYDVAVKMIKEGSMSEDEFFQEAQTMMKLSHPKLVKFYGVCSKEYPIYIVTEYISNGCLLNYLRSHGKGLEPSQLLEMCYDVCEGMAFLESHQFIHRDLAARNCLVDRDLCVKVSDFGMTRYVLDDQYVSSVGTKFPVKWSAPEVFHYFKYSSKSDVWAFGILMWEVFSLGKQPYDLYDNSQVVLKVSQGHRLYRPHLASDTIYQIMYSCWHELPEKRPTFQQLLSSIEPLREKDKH
# MDA-MB-231 = assay: Multi cell line growth assay (CellTiter-Glo, 72 h); format: cell-based; settings: Homo sapiens, Breast, ND = no growth inhibition observed
# DAUDI = assay: Multi cell line growth assay (CellTiter-Glo, 72 h); format: cell-based, human; settings: Homo sapiens, Daudi, Lymphoid, ND = no growth inhibition observed
# PC3 cells = assay: PC-3 cell growth assay (CellTiter-Glo, 96 h); format: cell-based; settings: Homo sapiens, PC-3, 96 h, read-out: GI50 PC3
# Experimental: as §1, §2, §3, §4
smiles,measurement,setting,value
"C=CC(=O)Nc1cc(-n2c(=O)ccc3cnc4ccc(-c5ccc(NS(C)(=O)=O)cc5)cc4c32)ccc1C [BMX-IN-1, reference compound]",GI50,LNCaP cells,1.7 µM
same,GI50,PC3,11 ± 1.13 µM
same,GI50,Jurkat,5.99 µM
same,ΔTm at 100 µM,"[1]; versus apo-BMX, read-out: ΔTm",8.04 ± 0.32 °C
same,Average Tm of BMX with compound,[1]; apo-BMX Tm 51.8-52.2 °C,60.17±0.32 °C
same,PAMPA/%R membrane retention,[2],55±8%
same,GI50,U-87MG,5.33 ± 0.19 µM
same,GI50,22 RV1,2.07 ± 0.06 µM
same,Papp,"in vitro; pH 6.8, PAMPA permeability",89 nm/s
same,Papp,"in vitro; pH 6.8, PAMPA/Pe effective permeability",89 ± 8 nm/s
same,GI50,CAOV3,7.68 ± 0.13 µM
same,GI50,DU145,17.7 µM
same,Kd,His6-hsBMX,0.069 µM
same,GI50,LNCaP,1.81 ± 0.05 µM
same,GI50,SK-N-MC,2.36 µM
same,IC50,[3],0.495 µM
same,GI50,RS4(11),1.18 ± 0.06 µM
same,degradation of BMX protein,[4],induce degradation of wild-type BMX in PC3 cells
same,GI50,Kasumi,3.13 ± 0.06 µM
same,solubility,[5],≥ 10 µM
same,IC50,"BMX; Experiment 1 of Fig. S3, control JS9A (in-house BMX-IN-1), read-out: BMX IC50",0.36 ± 0.024 µM
same,IC50,"BMX; Experiment 2 of Fig. S3, control commercial BMX-IN-1, read-out: BMX IC50",0.055 ± 0.035 µM
same,IC50,"BMX; Experiment 3 of Fig. S3, control commercial BMX-IN-1, read-out: BMX IC50",0.23 ± 0.0345 µM
same,IC50,"BMX; Experiment 4 of Fig. S3 = Fig. 1b, duplicate, mean ± S.D., read-out: BMX inhibition IC50",0.0502 µM and 0.05 µM
same,GI50,MDA-MB-231,23.6 ± 0.48 µM
same,GI50,DAUDI,1.68 ± 0.07 µM
same,GI50,PC3 cells,11.5 ± 2.2 µM
